Measured values from patent US20250129116A1, “CYCLOPROPANOL AS A BIOORTHOGONAL WARHEAD FOR ELECTROCHEMICALLY CONTROLLED BIOCONJUGATION APPLICATIONS” (UNIVERSITY OF SOUTH CAROLINA, priority 2023, published 2025).

Experiments:
Vero cells [1] = experiment: Metabolic incorporation of CPol-choline, lipidomic experiments and LC-MS; type: cell-based; settings: 5 mM, 24 h
Procedure: (§1) Three million cells (Vero, HeLa, or NIH-3T3) were seeded into a 10-cm cell culture dish and allowed attachment for 24 h in a complete medium (DMEM with 10% FBS) in a CO2 incubator. When cells reached 70-80% confluency, choline analog (PCPol-Cho or ECPol-Cho) at a final concentration of 5 mM was added into cells and co-cultured for another 24 h. The adhered cells were washed with 5 mL ice-cold DPBS (Dulbecco's Phosphate-Buffered Saline, CORNING), and were scratched into ice-cold PBS (5 mL), pooled in a centrifuge tube, and centrifuged at 1,000 rpm for 5 min at room temperature. The supernatant was then aspirated off and the lipids were extracted from the resultant pellet using the modified Bligh Dyer method. Briefly, the cell pellet was treated with a mixture of chloroform and methanol (1 mL of a 1:2 v/v solution), vortexed for 1 min, followed by addition of chloroform (0.5 mL) and 1 M NaCl (0.5 mL), and again vortexed for 1 min. Phase separation was achieved by centrifuging the mixture at 3,220 g at 4° C. for 30 min. The lower lipid-enriched organic layer was separated and dried using nitrogen at room temperature. For all LC-MS/MS analyses, the dried lipids were dissolved in a mixture of chloroform and methanol (200 μL of a 1:1 v/v solution). For all control experiments, the procedure described above was followed without administration of any choline derivatives.
(§2) Choline stands as the predominant head group in phospholipids which are the principal components of all cellular membranes. […] (FIG. 5A). The metabolic incorporation efficiency of CPol-choline was evaluated through lipidomic experiments (FIG. 15A) and LC-MS (FIG. 15B).

NIH-3T3 cells = experiment: as above; type: cell-based; settings: 5 mM, 24 h
Procedure: as §1, §2

Hela cells = experiment: as above; type: cell-based; settings: 5 mM, 24 h
Procedure: as §1, §2

Vero cells [2] = experiment: Electrochemically assisted cell labeling, FTSCA fluorescence; type: cell-based; settings: CPol+NaI+Echem group: 5 mM CPol-choline, NaI 100 μM, 0.7 V, 50 μM FTSCA, plate reader
Procedure: Vero cells were cultured in a 100-mm cell culture dish and allowed attachment overnight in a complete medium (DMEM with 10% FBS). When cells reached 60-70% confluency, CPol-choline analog at a final concentration of 5 mM was added into Vero cells and co-cultured for 24 h. The labeled Vero cells were harvested into 5 mL Dulbecco's Phosphate-Buffered Saline (DPBS 1×, CORNING). The cell numbers were counted using a hemocytometer. The cell concentration at 6×10^6 cells was used in the experiment. Subsequently, the Vero cell suspension was treated with NaI (100 μM) and low cell potential (0.7 V) under divided H-cell for 10 min. […] For the fluorescence imaging, the cells in a 24-well plate were fixed with 70% ethanol at −20° C. for 10 min, washed with DPBS three times, and then reacted with 50 μM FTSCA for 1 h at room temperature. After removing the unbound FTSCA, the cells were imaged by a fluorescence microscope (Olympus IX81, Shinjuku-ku, Tokyo, Japan). […] After washing with DPBS, the plate was read using a plate reader (Tecan Infinite M200 microplate reader) with an excitation wavelength of 491 nm and emission cutoff at 520 nm. […]
The intensity of this fluorescence was quantified using a plate reader and visualized using fluorescence microscopy (FIG. 6A). […]

Vero cells [3] = experiment: CellTiter Blue (CTB) cell viability assay; type: cell-based; settings: 24 h
Procedure: The in vitro cytotoxicity test of CPol-choline analog or other chemicals on Vero cells was determined by CellTiter Blue (CTB) cell viability assay (Promega). Briefly, Vero cells were cultured in 96-well plates at a density of 12.5×10^3 cells per well one day prior experiment. On the following day, the media was replaced by fresh 10% FBS DMEM containing the choline analogs at the concentrations of 0.2, 0.4, 0.8, 1, and 5 mM and incubated for 24 h at 37° C. The cells without the compounds were used as controls. NaI and I2 were also tested at the concentrations varied from 0.01 to 10,000 μM. The experiments were performed in quadruplicate. After 24 h of incubation, the media in each well was replaced by prewarmed media containing 10% CTB reagent and incubated for 2 h at 37° C. and 5% CO2. The medium containing CTB without cells was used as a negative control. Fluorescence intensity was then measured at 560/590 nm (Ex/Em) using SpectraMax M2 Multi-Mode microplate reader (Molecular Devices) to indicate cell viability.

angiotensin I = target: T1, angiotensin I (Homo sapiens, UniProt P01019); experiment: Electrochemically promoted bioconjugation, MALDI-TOF MS and LC-MS; type: biochemical; settings: NaBr, constant voltage 1.2 V
T1 construct: labeling angiotensin I, which is a peptide hormone responsible for vasoconstriction
Procedure: (§3) Mass spectra were generated with a MALDI-TOF mass spectrometer (rapifleX MALDI Tissuetyper from BRUKER) equipped with a solid-state smart beam and operated in a linear delayed extraction positive ion mode. The samples of conjugated peptide were concentrated using IMCStips (1 mL, IMCS company) and eluted with 70% acetonitrile/0.1% trifluoracetic acid (TFA) following the manufacturer protocol. Of note, the samples of conjugated proteins and viruses were denatured by incubating with guanidinium chloride (8 M) for 5 min at RT, followed by the removal of salts and elution using IMCStips. The resultant samples were spotted on a MALDI plate. These spots were analyzed by MALDI-TOF MS spectrometer with the matrix (Vsample: Vmatrix=1:1). […]
(§4) To further access the compatibility of biomolecules and various CPol derivatives within the electrochemical bioconjugation process, a range of biomolecules including peptides, proteins, and TMV, along with different CPol derivatives, were subjected to the NaI or NaBr redox catalyst and a low cell potential of 0.8 V or 1.2 V individually (FIG. 4A). Electrochemical bioconjugation was employed for labeling angiotensin I, which is a peptide hormone responsible for vasoconstriction and evaluated in blood pressure. […]

bivalirudin = experiment: as above; type: biochemical; settings: NaBr, constant voltage 1.2 V, batch reaction
Procedure: as §3, §4

lysozyme = lysozyme (Gallus gallus, UniProt P00698); experiment: Electrochemically promoted bioconjugation, MALDI-TOF MS; type: biochemical; settings: NaBr, constant voltage 1.2 V, phosphate buffer 0.1 M pH 7.0
Procedure: (§5) Mass spectra were generated with a MALDI-TOF mass spectrometer (rapifleX MALDI Tissuetyper from BRUKER) equipped with a solid-state smart beam and operated in a linear delayed extraction positive ion mode. The samples of conjugated peptide were concentrated using IMCStips (1 mL, IMCS company) and eluted with 70% acetonitrile/0.1% trifluoracetic acid (TFA) following the manufacturer protocol. Of note, the samples of conjugated proteins and viruses were denatured by incubating with guanidinium chloride (8 M) for 5 min at RT, followed by the removal of salts and elution using IMCStips. The resultant samples were spotted on a MALDI plate. These spots were analyzed by MALDI-TOF MS spectrometer with the matrix (Vsample: Vmatrix=1:1). Matrix of sinapic acid in 50% acetonitrile/0.1% TFA was used for protein measurements, and the matrix of a-Cyano-4-hydroxycinnamic acid in 50% acetonitrile/0.1% TFA was used for peptide measurements.
(§6) To further access the compatibility of biomolecules and various CPol derivatives within the electrochemical bioconjugation process, a range of biomolecules including peptides, proteins, and TMV, along with different CPol derivatives, were subjected to the NaI or NaBr redox catalyst and a low cell potential of 0.8 V or 1.2 V individually (FIG. 4A). Electrochemical bioconjugation was employed for labeling angiotensin I, which is a peptide hormone responsible for vasoconstriction and evaluated in blood pressure. […] However, when modifying angiotensin I with NaI at a voltage of 0.8V, certain side reactions may occur. […] Thus, we conducted a preliminary reaction involving bivalirudin or lysozyme, compound 1, and the resulting Br-substituted ketone without the application of electrochemical conditions (FIGS. 11-12).
(§7) Subsequently, the electrochemical bioconjugation approach was evaluated on lysozyme, a 14 kDa cationic protein. […] Additionally, the electrochemical bioconjugation on bovine serum albumin (BSA) was also evaluated. […] Besides, the conjugated biomolecule was conjugated with biotin-oxyamine under weak acidic conditions (m/z=18063 in FIG. 4F), which can be used in further cell labeling or protein proteomic analysis.

[4] = target: bovine serum albumin (BSA) (Bos taurus, UniProt P02769); experiment: as above; type: biochemical; settings: NaX (X=I or Br), 0.8 V or 1.2 V, phosphate buffer 0.1 M pH 7.0
Procedure: as §5, §6, §7

[5] = tested on: wild-type tobacco mosaic virus (wt-TMV); experiment: as above; type: biochemical
Procedure: To purify wild-type plant virus tobacco mosaic virus (TMV), frozen TMV leaves were crushed and blended. Approximately 3 volumes of phosphate buffer were added to the crushed leaves with an addition of 0.2-0.3% 2-mercaptoethanol. The leaves were blended for 2 min at a low setting and then switched to the highest setting for an additional 3 min. The blended plant sap was filtered through two layers of cheesecloth and then flow through was centrifuged at 10500 rpm (Sorvall SLA 1500) at 4° C. for 20 min. The resulting supernatant was then pooled together and mixed with n-butanol/chloroform at a ratio of 2:1:1 (plant sap/n-butanol/chloroform). The homogenate was stirred for 30 min on ice and then centrifuged at 6000 rpm (SLA 4000) for 10 min at 4° C. The upper aqueous layer was transferred to a beaker, and the virus was precipitated by adding 0.2 M NaCl and 8% (wt/vol) PEG-8000. The mixture was stirred on ice for 60 min and centrifuged at 12000 rpm (Sorvall SLA1500) for 20 min. The white precipitant was then resuspended with 10 mM K phos buffer (pH 7.8). The solution was centrifuged at 9,500 rpm for 15 min at 4° C. to remove excess PEG. The supernatant was transferred to ultracentrifuge tubes (Beckman 50.2 Ti) and the virus was pelleted at 42,000 rpm at 4° C. for 3 h. The virus pellet was resuspended in 100 mM K phos buffer (pH 7.8) overnight at 4° C. UV absorbance was measured at 260 and 280 nm wavelengths to determine the concentration of the virus. […] The purified virus solutions were stored at 4° C.
Mass spectra were generated with a MALDI-TOF mass spectrometer (rapifleX MALDI Tissuetyper from BRUKER) equipped with a solid-state smart beam and operated in a linear delayed extraction positive ion mode. […] These spots were analyzed by MALDI-TOF MS spectrometer with the matrix (Vsample: Vmatrix=1:1). […]
Subsequently, the electrochemical bioconjugation approach was evaluated on lysozyme, a 14 kDa cationic protein. […] Additionally, the electrochemical bioconjugation on bovine serum albumin (BSA) was also evaluated. […]

Sequence of lysozyme (P00698 19-147): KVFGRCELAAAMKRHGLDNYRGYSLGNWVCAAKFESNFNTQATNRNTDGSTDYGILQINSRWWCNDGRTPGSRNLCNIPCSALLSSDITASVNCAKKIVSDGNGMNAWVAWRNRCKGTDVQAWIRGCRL
Sequence of bovine serum albumin (BSA) (P02769 25-607): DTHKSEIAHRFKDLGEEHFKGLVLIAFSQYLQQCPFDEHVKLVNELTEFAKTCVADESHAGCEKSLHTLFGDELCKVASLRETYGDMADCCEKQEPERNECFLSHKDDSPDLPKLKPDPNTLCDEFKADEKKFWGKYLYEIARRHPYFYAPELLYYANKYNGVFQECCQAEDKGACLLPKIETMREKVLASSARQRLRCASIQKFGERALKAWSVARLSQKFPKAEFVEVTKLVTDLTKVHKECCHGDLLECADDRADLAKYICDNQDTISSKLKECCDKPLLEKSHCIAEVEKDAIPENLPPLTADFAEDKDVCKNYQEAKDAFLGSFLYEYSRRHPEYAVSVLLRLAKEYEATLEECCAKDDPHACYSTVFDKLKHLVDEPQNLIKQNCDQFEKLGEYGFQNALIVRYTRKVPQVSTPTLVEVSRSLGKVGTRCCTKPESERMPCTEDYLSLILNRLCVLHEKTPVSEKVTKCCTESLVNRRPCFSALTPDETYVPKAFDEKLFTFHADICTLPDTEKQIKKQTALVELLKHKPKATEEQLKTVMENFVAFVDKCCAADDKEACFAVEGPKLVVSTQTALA

Br.C[N+](C)(CCO)CCCC1(O)CC1 [CPol-choline analog]
metabolic incorporation into cells (Vero cells [1]): successfully incorporated
metabolic incorporation into cells (NIH-3T3 cells): successfully incorporated
metabolic incorporation into cells (Hela cells): successfully incorporated
intracellular fluorescence intensity after labeling with FTSCA (Vero cells [2]): strongest fluorescent intensity
cytotoxicity on Vero cells (Vero cells [3]; choline analog 0.2-5 mM): no cytotoxicity was observed

OC1(c2ccccc2)CC1 [Formula I-1, Phenylcyclopropanol]
labeling of angiotensin I (angiotensin I): successful labeling
modification of bivalirudin (bivalirudin): effectively modified
conjugation to lysozyme (lysozyme): efficiently conjugated
conjugation to BSA [4]: efficiently conjugated
conjugation to wt-TMV ([5]; CPol derivative 10 eq., NaI, potential of 1.2 V): modified TMV peak ([M+132]^+) was found
conjugation to wt-TMV ([5]; identical electrochemical conditions (1.2 V) without NaI): no reaction occurred

CCCCCC1(O)CC1 [Formula I-4, Pentylcyclopropanol]
conjugation to lysozyme (lysozyme): efficiently conjugated
conjugation to BSA [4]: efficiently conjugated
conjugation to wt-TMV ([5]; NaBr, constant voltage 1.2 V): successfully modified

OC1(c2ccc(C(F)(F)F)cc2)CC1 [Formula I-7, 1-(4-(trifluoromethyl)phenyl)cyclopropan-1-ol]
conjugation to lysozyme (lysozyme): efficiently conjugated

[I-].[Na+] [NaI, sodium iodide]
cytotoxicity on Vero cells (Vero cells [3]; NaI 0.01 to 10,000 μM): safely co-cultured
